Results taken from patent US20080200531A1, “CDKI pathway inhibitors as inhibitors of tumor cell growth” (priority 2006, published 2008).

How the values were obtained:
[1] = biological target: CDK2/cyclinA (h), CDK2/cyclinE (h); assay: Cyclin/CDK kinase assay (Upstate), CDK2/cyclinA and CDK2/cyclinE; type: biochemical, human; conditions: 100 μM, re-tested at 20 and 40 μM (SNX9, SNX2) or 10 and 20 μM (SNX9-1, SNX14)
Method: (§1) To test the above hypothesis, we determined whether several CDKI pathway inhibitors, including two SNX9 class compounds (SNX9 and SNX9-1), two compounds of a different structural class (SNX14 and SNX2) and another unrelated inhibitor (SNX35), inhibit the kinase activity of different complexes formed in vitro by purified cyclin/CDK complexes. This analysis was carried out as a service by Upstate Biotechnology, Inc.
(§2) In a final reaction volume of 25 μl, CDK2/cyclinA (h) (5-10 mU) is incubated with 8 mM MOPS pH 7.0, 0.2 mM EDTA, 0.1 mg/ml histone H1, 10 mM MgAcetate and [γ-33P-ATP] (specific activity approx. 500 cpm/pmol, 45 μM concentration). The reaction is initiated by the addition of the MgATP mix. After incubation for 40 minutes at room temperature, the reaction is stopped by the addition of 5 μl of a 3% phosphoric acid solution. 10 μl of the reaction is then spotted onto a P30 filtermat and washed three times for 5 minutes in 75 mM phosphoric acid and once in methanol prior to drying and scintillation counting.
In a final reaction volume of 25 μl, CDK2/cyclinE (h) (5-10 mU) is incubated with 8 mM MOPS pH 7.0, 0.2 mM EDTA, 0.1 mg/ml histone H1, 10 mM MgAcetate and [γ-33P-ATP] (specific activity approx. 500 cpm/pmol, 120 μM concentration). The reaction is initiated by the addition of the MgATP mix. […]

CDK3/cyclinE (h) = biological target: T1, CDK3/cyclinE (h) (Homo sapiens, UniProt Q00526); assay: Cyclin/CDK kinase assay (Upstate), CDK3/cyclinE; type: biochemical; conditions: 100 μM, re-tested at 20 and 40 μM (SNX9, SNX2) or 10 and 20 μM (SNX9-1, SNX14)
T1 construct: purchased Upstate Biotechnology, Inc
Method: as §1
as §2, with “CDK3/cyclinE” for “CDK2/cyclinA”, “mg/ml” for “mg/ml histone”, “200” for “45”
(§3) At the first step, all the compounds were tested at 100 μM concentration. […] For SNX14 and SNX2, the relative efficacy of inhibition was CDK1>CDK2˜CDK3>CDK6. For SNX9 and SNX9-1, the order was CDK3>CDK1>CDK2>CDK6 (FIG. 12).

[2] = test system: human colon (HCT116) cancer xenografts; assay: Therapeutic Dose Study in nude mice bearing HCT116 xenografts; type: in vivo; conditions: 70 mg/kg intra-tumorally; for decrease in the tumor size on day 31 relative to the control / mice that died or were sacrificed by day 31: 9 injections over three weeks; for mice that died or were sacrificed by day 31: groups of 10, control 60%; for P, decrease in the tumor size on day 31 relative to the control: 9 injections, paired two-tailed t-test, dead or sacrificed mice taken as 2000 mm^3
Method: Male NCr nude mice, aged approximately 6-8 weeks were used for the study, which was carried out as a service by Taconic Biotechnology, Rensselaer, N.Y. Animals were maintained under virus free barrier conditions with continuous health monitoring. The administration of test materials, all data collection and disposal of study animals was in compliance with all relevant Taconic Biotechnology Standard Operating Procedures as well as The Guide for the Care and Use of Laboratory Animals. Study animals were observed upon arrival and daily throughout the study for overall health, behavior and morbidity. Test animals were subject to body weight measurement to determine dosage volumes of test articles.
With this information, we then carried out the Therapeutic Dose Study of SNX9 and SNX9-1, in nude mice bearing established human colon (HCT116) cancer xenografts. HCT116 was from American Type Culture Collection (ATCC); ATCC information was referenced for the cryopreservation and growing of the cells. The cells were injected at 5×10^6 subcutaneously in the intra-scapular region. The tumor dimensions were measured using vernier calipers. To approximate the subcutaneous tumor size, the calipers were compressed on the skin slightly but not so tightly as to grip the subcutaneous mass. The maximal dimension of the tumor was recorded as L. The dimension perpendicular to L was recorded as W. The formula: Volume=0.5*L*W^2 was used. Eight days following tumor cell injection into the intra-scapular region, when all the tumor inoculi became palpable, groups of 10 mice were treated for 21 days with PBS (control), SNX9 or SNX9-1 (each at 70 mg/kg), dissolved as in the Range Finder Study.
The compounds were injected intra-tumorally three times a week, on alternating days, for a total of 9 injections per animal over three weeks. Mice were sacrificed when tumor size exceeded 2000 mm^3. […] By day 31 (2 days after the end of treatment), 6 of 10 mice in the control group (60%) died or were sacrificed, as compared to 40% of the mice in SNX9-treated group and only 10% of the mice in SNX9-1 treated group. Statistical analysis of differences in the tumor size on day 31 was carried out using paired two-tailed t-test; for this analysis, the tumor volume of all the mice that died or were sacrificed before day 31 was assumed to be 2000 mm^3.

CDK1/cyclinB (h) = biological target: T2, CDK1/cyclinB (h) (Homo sapiens, UniProt P06493); assay: Cyclin/CDK kinase assay (Upstate), CDK1/cyclinB; type: biochemical; conditions: 100 μM, re-tested at 20 and 40 μM (SNX9, SNX2) or 10 and 20 μM (SNX9-1, SNX14)
T2 construct: purchased Upstate Biotechnology, Inc
Method: as §1
as §2, with “CDK1/cyclinB” for “CDK2/cyclinA”, “μU)” for “mU)”
as §3

T1 sequence (Q00526 whole entry): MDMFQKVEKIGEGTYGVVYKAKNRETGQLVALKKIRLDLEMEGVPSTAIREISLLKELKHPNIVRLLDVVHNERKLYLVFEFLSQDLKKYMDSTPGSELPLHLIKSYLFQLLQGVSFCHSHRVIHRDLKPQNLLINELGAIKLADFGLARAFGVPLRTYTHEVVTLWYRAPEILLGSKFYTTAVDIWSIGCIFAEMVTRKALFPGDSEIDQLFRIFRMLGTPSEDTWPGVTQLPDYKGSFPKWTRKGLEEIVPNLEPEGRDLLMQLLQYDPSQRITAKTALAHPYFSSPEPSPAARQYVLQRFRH
T1 sequence (P24864 whole entry partner): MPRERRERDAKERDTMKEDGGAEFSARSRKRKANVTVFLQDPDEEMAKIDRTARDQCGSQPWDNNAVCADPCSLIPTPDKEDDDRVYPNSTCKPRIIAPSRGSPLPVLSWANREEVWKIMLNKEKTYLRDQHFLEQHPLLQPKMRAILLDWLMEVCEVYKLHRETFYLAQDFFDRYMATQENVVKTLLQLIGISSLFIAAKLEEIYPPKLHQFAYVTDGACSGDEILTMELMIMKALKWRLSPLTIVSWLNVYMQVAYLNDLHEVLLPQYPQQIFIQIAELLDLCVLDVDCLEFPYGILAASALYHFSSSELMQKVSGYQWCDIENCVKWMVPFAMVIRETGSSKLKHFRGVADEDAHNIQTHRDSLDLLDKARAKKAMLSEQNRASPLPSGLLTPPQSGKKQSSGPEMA
T2 sequence (P06493 whole entry): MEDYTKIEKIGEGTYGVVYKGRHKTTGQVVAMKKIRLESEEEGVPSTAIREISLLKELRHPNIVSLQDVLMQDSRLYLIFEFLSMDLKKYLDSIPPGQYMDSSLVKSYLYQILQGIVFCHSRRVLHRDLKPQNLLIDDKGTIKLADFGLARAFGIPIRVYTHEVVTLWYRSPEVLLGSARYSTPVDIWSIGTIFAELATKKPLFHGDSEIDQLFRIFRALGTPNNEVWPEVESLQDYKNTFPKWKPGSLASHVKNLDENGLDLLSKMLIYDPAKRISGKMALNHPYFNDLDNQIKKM
T2 sequence (P14635 whole entry partner): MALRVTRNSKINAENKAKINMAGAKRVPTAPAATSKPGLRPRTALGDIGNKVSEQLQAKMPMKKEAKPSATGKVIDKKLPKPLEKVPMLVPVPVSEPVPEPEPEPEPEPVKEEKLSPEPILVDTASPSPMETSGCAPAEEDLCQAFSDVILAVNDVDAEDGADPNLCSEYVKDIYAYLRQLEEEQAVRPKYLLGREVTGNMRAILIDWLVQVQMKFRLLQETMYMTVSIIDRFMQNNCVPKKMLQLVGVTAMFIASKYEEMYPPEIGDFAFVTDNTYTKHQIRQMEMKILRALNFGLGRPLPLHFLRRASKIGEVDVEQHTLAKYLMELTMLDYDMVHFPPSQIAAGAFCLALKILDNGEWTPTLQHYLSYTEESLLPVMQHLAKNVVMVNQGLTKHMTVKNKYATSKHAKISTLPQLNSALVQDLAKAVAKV

| SMILES | kinase activity of CDK2 [1] | kinase activity of CDK3 (CDK3/cyclinE (h)) | decrease in the tumor size on day 31 relative to the control [2] | mice that died or were sacrificed by day 31 [2] [%] | P, decrease in the tumor size on day 31 relative to the control [2] | kinase activity of CDK1 (CDC2) (CDK1/cyclinB (h)) |
| --- | --- | --- | --- | --- | --- | --- |
| NCCc1c[nH]c2c(Cl)cc(Cl)cc12 [SNX9-1] | inhibited the kinase activities | inhibited the kinase activities | highly significant | 10 | < 0.01 | inhibited the kinase activities |
| Cc1[nH]c2c(Cl)cccc2c1CCN [SNX9] | inhibited the kinase activities | inhibited the kinase activities | did not reach statistical significance | 40 | < 0.3 | inhibited the kinase activities |
